Experiments:
AMBEL (Ragweed, Common) = assay: Postemergence herbicidal evaluation; assay type: in vivo, Ambrosia artemisifolia; conditions: postemergence
Procedure, shortened: (§1)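 Rate range approx. 0.0156–0.500 kg/ha. Foliar application at 40 psi to ~2-week seedlings; surfactant 0.5% TWEEN 20 in 50/50 acetone/water. Evaluation 4–5 wk post-treatment by 0–9 visual injury score, means of replicate tests.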

CASOB (Sicklepod) [1] = assay: Postemergence herbicidal evaluation; assay type: in vivo, Cassia obtusifolia; conditions: postemergence
Procedure, shortened: as §1

[2] = system: CHEAL (Lambsquarters, Common); assay: Postemergence herbicidal evaluation; assay type: in vivo, Chenopodium album; conditions: postemergence
Procedure, shortened: as §1

GALAP (Galium) [3] = assay: Postemergence herbicidal evaluation; assay type: in vivo, Galium aparine; conditions: postemergence
Procedure, shortened: as §1

ECHCG (Barnyardgrass) = assay: Postemergence herbicidal evaluation; assay type: in vivo, Echinochloa crus-galli; conditions: postemergence
Procedure, shortened: as §1

SETVI (Foxtail, Green) = assay: Postemergence herbicidal evaluation; assay type: in vivo, Setaria viridis; conditions: postemergence
Procedure, shortened: as §1

[4] = system: GLXMAW (Soybean, Williams); assay: Postemergence herbicidal evaluation; assay type: in vivo, Glycine max, (L.) Merr. cv Williams; conditions: postemergence
Procedure, shortened: as §1

ORYSAT (Rice, Tebonnet) = assay: Postemergence herbicidal evaluation; assay type: in vivo, Oryza sativa, (L.) Tebonnet; conditions: postemergence
Procedure, shortened: as §1

CASOB (Sicklepod) [5] = assay: Preemergence herbicidal evaluation; assay type: in vivo, Cassia obtusifolia; conditions: preemergence, rated 4-5 weeks after treatment, 0-9 scale
Procedure, shortened: (§2)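 Seeds were mixed with potting soil and planted on about one inch of soil, then sprayed with test compound in aqueous acetone at about 0.0156 to 0.500 kg per hectare. Plants grew under standard greenhouse care and were visually rated 0-9 against untreated controls 4-5 weeks post-treatment.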

GALAP (Galium) [6] = assay: Preemergence herbicidal evaluation; assay type: in vivo, Galium aparine; conditions: preemergence, rated 4-5 weeks after treatment, 0-9 scale
Procedure, shortened: as §2

ZEAMX (Corn, Field) = assay: Preemergence herbicidal evaluation; assay type: in vivo, Zea mays; conditions: preemergence, rated 4-5 weeks after treatment, 0-9 scale
Procedure, shortened: as §2

CYPIR (Rice Flatsedge) = assay: Preemergence weed control under flooded paddy conditions; assay type: in vivo, Cyperus iria; conditions: rated 3-4 weeks after treatment
Procedure, shortened: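 Seeds or propagules sown in silt loam kept flooded 1.5-3 cm; compounds in 50/50 acetone/water pipetted into flood water at about 0.0313 to 0.500 kg/ha. Greenhouse; visual 0-9 rating versus untreated control 3-4 weeks after treatment.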

CYPSE (Flatsedge) [7] = assay: as above; assay type: in vivo, Cyperus serotinus; conditions: rated 3-4 weeks after treatment
Procedure, shortened: (§3)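 First, seeds or propagules go into the top 0.5 cm of silt loam; next, water is held 1.5 to 3 cm over the soil; then compound (50/50 acetone/water) is pipetted into it at about 0.0313 to 0.500 kg/ha; finally plants are rated visually 0-9 after three to four weeks.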

[8] = system: SAGPY (Arrowhead (Pygmaea)); assay: as above; assay type: in vivo, Sagittaria pygmaea; conditions: rated 3-4 weeks after treatment
Procedure, shortened: as §3

CYPSE (Flatsedge) [9] = assay: Postemergence weed control under flooded paddy conditions; assay type: in vivo, Cyperus serotinus; conditions: postemergence weeds, rated 3 to 4 weeks after treatment
Procedure, shortened: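 Containers holding 3–5 cm weeds and rice at 1.5–2.5 leaves are flooded to 1.5–3 cm above soil. Compound in 50/50 v/v aqueous/acetone is then added directly to the water, about 0.0313–0.500 kg/ha. Plants are kept in the greenhouse and rated 0–9 visually at 3–4 weeks.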

CN1C(=O)C(CC(=O)OCCF)SC1=Nc1cc(-n2c(=O)cc(C(F)(F)F)n(C)c2=O)c(F)cc1Cl (stereo not shown) [Compound 93, 2-Fluoroethyl 2-{{2-chloro-5-[3,6-dihydro-3-methyl-2,6-dioxo-4-(trifluoromethyl)-1(2H)-pyrimidinyl]-4-fluorophenyl}imino}-3-methyl-4-oxo-5-thiazolidineacetate] showed an AMBEL herbicidal rating (AMBEL (Ragweed, Common); rate 0.0158 kg/ha) of 9.0, an AMBEL herbicidal rating (AMBEL (Ragweed, Common); rate 0.0315 kg/ha) of 9.0 and an AMBEL herbicidal rating (AMBEL (Ragweed, Common); rate 0.0630 kg/ha) of 9.0. For the same compound, the CASOB herbicidal rating (CASOB (Sicklepod) [1]; rate 0.0158 kg/ha) was 0.0, the CASOB herbicidal rating (CASOB (Sicklepod) [1]; rate 0.0315 kg/ha) was 1.0 and the CASOB herbicidal rating (CASOB (Sicklepod) [1]; rate 0.0630 kg/ha) was 2.0. It also gave a CHEAL herbicidal rating ([2]; rate 0.0158 kg/ha) of 4.0, a CHEAL herbicidal rating ([2]; rate 0.0315 kg/ha) of 4.0 and a CHEAL herbicidal rating ([2]; rate 0.0630 kg/ha) of 9.0. For the same compound, the GALAP herbicidal rating (GALAP (Galium) [3]; rate 0.0158 kg/ha) was 0.0, the GALAP herbicidal rating (GALAP (Galium) [3]; rate 0.0315 kg/ha) was 5.0 and the GALAP herbicidal rating (GALAP (Galium) [3]; rate 0.0630 kg/ha) was 6.0. It also gave an ECHCG herbicidal rating (ECHCG (Barnyardgrass); rate 0.0158 kg/ha) of 0.0, an ECHCG herbicidal rating (ECHCG (Barnyardgrass); rate 0.0315 kg/ha) of 2.0 and an ECHCG herbicidal rating (ECHCG (Barnyardgrass); rate 0.0630 kg/ha) of 7.0. The SETVI herbicidal rating (SETVI (Foxtail, Green); rate 0.0158 kg/ha) was 9.0, the SETVI herbicidal rating (SETVI (Foxtail, Green); rate 0.0315 kg/ha) was 9.0 and the SETVI herbicidal rating (SETVI (Foxtail, Green); rate 0.0630 kg/ha) was 9.0. It also gave a GLXMAW herbicidal rating ([4]; rate 0.0158 kg/ha) of 8.5, a GLXMAW herbicidal rating ([4]; rate 0.0315 kg/ha) of 9.0 and a GLXMAW herbicidal rating ([4]; rate 0.0630 kg/ha) of 9.0. For the same compound, the ORYSAT herbicidal rating (ORYSAT (Rice, Tebonnet); rate 0.0158 kg/ha) was 1.0, the ORYSAT herbicidal rating (ORYSAT (Rice, Tebonnet); rate 0.0315 kg/ha) was 4.0 and the ORYSAT herbicidal rating (ORYSAT (Rice, Tebonnet); rate 0.0630 kg/ha) was 6.0. It also gave a CASOB rating (CASOB (Sicklepod) [5]; 0.0313 kg/ha) of 0.0, a CASOB rating (CASOB (Sicklepod) [5]; 0.0625 kg/ha) of 0.0 and a CASOB rating (CASOB (Sicklepod) [5]; 0.1250 kg/ha) of 0.0. For the same compound, the CASOB rating (CASOB (Sicklepod) [5]; 0.2500 kg/ha) was 9.0, the GALAP rating (GALAP (Galium) [6]; 0.0313 kg/ha) was 0.0 and the GALAP rating (GALAP (Galium) [6]; 0.0625 kg/ha) was 0.0. For the same compound, the GALAP rating (GALAP (Galium) [6]; 0.1250 kg/ha) was 9.0, the GALAP rating (GALAP (Galium) [6]; 0.2500 kg/ha) was 9.0 and the ZEAMX rating (ZEAMX (Corn, Field); 0.0313 kg/ha) was 0.0. The ZEAMX rating (ZEAMX (Corn, Field); 0.0625 kg/ha) was 0.0, the ZEAMX rating (ZEAMX (Corn, Field); 0.1250 kg/ha) was 1.0 and the ZEAMX rating (ZEAMX (Corn, Field); 0.2500 kg/ha) was 6.0. For the same compound, the “CYPIR herbicidal effect rating” value (CYPIR (Rice Flatsedge); 0.0313 kg/ha) was 0.0, the “CYPIR herbicidal effect rating” value (CYPIR (Rice Flatsedge); 0.0625 kg/ha) was 0.0 and the “CYPIR herbicidal effect rating” value (CYPIR (Rice Flatsedge); 0.1250 kg/ha) was 0.0. For the same compound, the “CYPIR herbicidal effect rating” value (CYPIR (Rice Flatsedge); 0.2500 kg/ha) was 0.0, the “CYPSE herbicidal effect rating” value (CYPSE (Flatsedge) [7]; 0.0313 kg/ha) was 0.0 and the “CYPSE herbicidal effect rating” value (CYPSE (Flatsedge) [7]; 0.0625 kg/ha) was 0.0. For the same compound, the “CYPSE herbicidal effect rating” value (CYPSE (Flatsedge) [7]; 0.1250 kg/ha) was 5.0, the “CYPSE herbicidal effect rating” value (CYPSE (Flatsedge) [7]; 0.2500 kg/ha) was 9.0 and the “SAGPY herbicidal effect rating” value ([8]; 0.0313 kg/ha) was 0.0. The “SAGPY herbicidal effect rating” value ([8]; 0.0625 kg/ha) was 0.0, the “SAGPY herbicidal effect rating” value ([8]; 0.1250 kg/ha) was 3.0 and the “SAGPY herbicidal effect rating” value ([8]; 0.2500 kg/ha) was 9.0. The “Herbicidal rating CYPSE” value (CYPSE (Flatsedge) [9]; Rate 0.0313 kg/ha) was 0.0, the “Herbicidal rating CYPSE” value (CYPSE (Flatsedge) [9]; Rate 0.0625 kg/ha) was 0.0 and the “Herbicidal rating CYPSE” value (CYPSE (Flatsedge) [9]; Rate 0.1250 kg/ha) was 5.0. For the same compound, the “Herbicidal rating CYPSE” value (CYPSE (Flatsedge) [9]; Rate 0.2500 kg/ha) was 9.0.
